Results from ChEMBL document CHEMBL2203087, “Analogue-based design, synthesis and docking of non-steroidal anti-inflammatory agents. Part 2: methyl sulfanyl/methyl sulfonyl substituted 2,3-diaryl-2,3-dihydro-1H-quinazolin-4-ones” (Bioorg Med Chem, 2012).
Activity calls are given as the source filed them. The calls are words filed in the database; no cut-off is given here.

Columns and labels:
Rattus norvegicus [1] = experiment: Antiinflammatory activity in rat assessed as inhibition of carrageenan-induced paw edema at 50 mg/kg, po measured at 360 mins after carrageenan challenge by plethysmographic analysis; assay type: functional; settings: 6 h
Rattus norvegicus [2] = experiment: Antiinflammatory activity in rat assessed as inhibition of carrageenan-induced paw edema at 50 mg/kg, po measured at 270 mins after carrageenan challenge by plethysmographic analysis; assay type: functional; settings: 4.5 h
Rattus norvegicus [3] = experiment: Antiinflammatory activity in rat assessed as inhibition of carrageenan-induced paw edema at 50 mg/kg, po measured at 180 mins after carrageenan challenge by plethysmographic analysis; assay type: functional; settings: 3 h
Rattus norvegicus [4] = experiment: Antiinflammatory activity in rat assessed as inhibition of carrageenan-induced paw edema at 50 mg/kg, po measured at 90 mins after carrageenan challenge by plethysmographic analysis; assay type: functional; settings: 1.5 h
Ovis aries = organism: Ovis aries; experiment: Selectivity ratio of ovine COX1 to ovine COX2 at 20 uM
[5] = target: T1, Prostaglandin G/H synthase 1 (Ovis aries) (UniProt P05979); experiment: Inhibition of ovine COX1 peroxidase activity assessed as TMPD oxidation at 20 uM by colorimetric analysis
T1 sequence (whole entry): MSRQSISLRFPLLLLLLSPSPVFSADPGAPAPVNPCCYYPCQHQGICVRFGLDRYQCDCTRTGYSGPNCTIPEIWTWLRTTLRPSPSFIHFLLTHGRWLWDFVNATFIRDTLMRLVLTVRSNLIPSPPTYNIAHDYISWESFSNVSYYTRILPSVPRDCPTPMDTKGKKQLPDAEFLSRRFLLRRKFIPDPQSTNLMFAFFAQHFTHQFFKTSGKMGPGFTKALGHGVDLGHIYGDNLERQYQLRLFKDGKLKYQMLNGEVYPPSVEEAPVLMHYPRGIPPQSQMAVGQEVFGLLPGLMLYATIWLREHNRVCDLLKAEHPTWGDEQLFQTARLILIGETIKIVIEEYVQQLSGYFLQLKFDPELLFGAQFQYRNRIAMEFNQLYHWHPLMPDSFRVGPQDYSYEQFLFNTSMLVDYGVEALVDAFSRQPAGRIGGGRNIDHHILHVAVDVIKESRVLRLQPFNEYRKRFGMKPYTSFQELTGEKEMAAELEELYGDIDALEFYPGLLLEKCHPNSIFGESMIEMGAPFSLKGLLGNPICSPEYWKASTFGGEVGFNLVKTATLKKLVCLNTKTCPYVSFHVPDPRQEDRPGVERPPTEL

## CS(=O)(=O)c1ccc(C2Nc3ccccc3C(=O)N2c2ccccc2F)cc1 (configuration not stated)
Rattus norvegicus [1]
  inhibition in vivo at 50 mg/kg: 44%
Rattus norvegicus [2]
  inhibition in vivo at 50 mg/kg: 42%
Rattus norvegicus [3]
  inhibition in vivo at 50 mg/kg: 39%
Rattus norvegicus [4]
  inhibition in vivo at 50 mg/kg: 36%
Ovis aries
  Selectivity ratio: 0.278
[5]
  inhibition: 15%

## COc1ccc(N2C(=O)c3ccccc3NC2c2ccc(S(C)(=O)=O)cc2)cc1 (configuration not stated)
Rattus norvegicus [1]
  inhibition in vivo at 50 mg/kg: 49%
Rattus norvegicus [2]
  inhibition in vivo at 50 mg/kg: 47%
Rattus norvegicus [3]
  inhibition in vivo at 50 mg/kg: 43%
Rattus norvegicus [4]
  inhibition in vivo at 50 mg/kg: 39%
Ovis aries
  Selectivity ratio: 0.577
[5]
  inhibition: 41%

## CSc1ccc(C2Nc3ccccc3C(=O)N2c2ccc(Cl)cc2)cc1 (configuration not stated)
Rattus norvegicus [1]
  inhibition in vivo at 50 mg/kg: 47%
Rattus norvegicus [2]
  inhibition in vivo at 50 mg/kg: 46%
Rattus norvegicus [3]
  inhibition in vivo at 50 mg/kg: 41%
Rattus norvegicus [4]
  inhibition in vivo at 50 mg/kg: 38%
Ovis aries
  Selectivity ratio: 0.055
[5]
  inhibition: 5%

## CS(=O)(=O)c1ccc(C2Nc3ccccc3C(=O)N2c2ccc(Cl)cc2)cc1 (configuration not stated)
Rattus norvegicus [1]
  inhibition in vivo at 50 mg/kg: 51%
Rattus norvegicus [2]
  inhibition in vivo at 50 mg/kg: 46%
Rattus norvegicus [3]
  inhibition in vivo at 50 mg/kg: 42%
Rattus norvegicus [4]
  inhibition in vivo at 50 mg/kg: 37%
Ovis aries
  Selectivity ratio: > 0.001
[5]
  inhibition: inactive

## CS(=O)(=O)c1ccc(C2Nc3ccccc3C(=O)N2c2ccccc2)cc1 (configuration not stated)
Rattus norvegicus [1]
  inhibition in vivo at 50 mg/kg: 40%
Rattus norvegicus [2]
  inhibition in vivo at 50 mg/kg: 38%
Rattus norvegicus [3]
  inhibition in vivo at 50 mg/kg: 35%
Rattus norvegicus [4]
  inhibition in vivo at 50 mg/kg: 31%
Ovis aries
  Selectivity ratio: 0.742
[5]
  inhibition: 49%

## CSc1ccc(C2Nc3ccccc3C(=O)N2c2ccccc2F)cc1 (configuration not stated)
Rattus norvegicus [1]
  inhibition in vivo at 50 mg/kg: 41%
Rattus norvegicus [2]
  inhibition in vivo at 50 mg/kg: 39%
Rattus norvegicus [3]
  inhibition in vivo at 50 mg/kg: 37%
Rattus norvegicus [4]
  inhibition in vivo at 50 mg/kg: 33%

## CS(=O)(=O)c1ccc(C2Nc3ccccc3C(=O)N2c2ccc(F)cc2)cc1 (configuration not stated)
Rattus norvegicus [1]
  inhibition in vivo at 50 mg/kg: 48%
Rattus norvegicus [2]
  inhibition in vivo at 50 mg/kg: 45%
Rattus norvegicus [3]
  inhibition in vivo at 50 mg/kg: 43%
Rattus norvegicus [4]
  inhibition in vivo at 50 mg/kg: 38%
Ovis aries
  Selectivity ratio: > 0.001
[5]
  inhibition: inactive

## COc1ccc(N2C(=O)c3ccccc3NC2c2ccc(SC)cc2)cc1 (configuration not stated)
Rattus norvegicus [1]
  inhibition in vivo at 50 mg/kg: 40%
Rattus norvegicus [2]
  inhibition in vivo at 50 mg/kg: 38%
Rattus norvegicus [3]
  inhibition in vivo at 50 mg/kg: 35%
Rattus norvegicus [4]
  inhibition in vivo at 50 mg/kg: 33%

## CSc1ccc(C2Nc3ccccc3C(=O)N2c2ccc(C)cc2)cc1 (configuration not stated)
Rattus norvegicus [1]
  inhibition in vivo at 50 mg/kg: 39%
Rattus norvegicus [2]
  inhibition in vivo at 50 mg/kg: 38%
Rattus norvegicus [3]
  inhibition in vivo at 50 mg/kg: 34%
Rattus norvegicus [4]
  inhibition in vivo at 50 mg/kg: 30%

## CSc1ccc(C2Nc3ccccc3C(=O)N2c2ccc(F)cc2)cc1 (configuration not stated)
Rattus norvegicus [1]
  inhibition in vivo at 50 mg/kg: 44%
Rattus norvegicus [2]
  inhibition in vivo at 50 mg/kg: 42%
Rattus norvegicus [3]
  inhibition in vivo at 50 mg/kg: 39%
Rattus norvegicus [4]
  inhibition in vivo at 50 mg/kg: 32%

## Cc1ccc(N2C(=O)c3ccccc3NC2c2ccc(S(C)(=O)=O)cc2)cc1 (configuration not stated)
Rattus norvegicus [1]
  inhibition in vivo at 50 mg/kg: 40%
Rattus norvegicus [2]
  inhibition in vivo at 50 mg/kg: 39%
Rattus norvegicus [3]
  inhibition in vivo at 50 mg/kg: 35%
Rattus norvegicus [4]
  inhibition in vivo at 50 mg/kg: 34%
Ovis aries
  Selectivity ratio: > 0.01
[5]
  inhibition: inactive

## CSc1ccc(C2Nc3ccccc3C(=O)N2c2ccccc2)cc1 (configuration not stated)
Rattus norvegicus [1]
  inhibition in vivo at 50 mg/kg: 39%
Rattus norvegicus [2]
  inhibition in vivo at 50 mg/kg: 37%
Rattus norvegicus [3]
  inhibition in vivo at 50 mg/kg: 34%
Rattus norvegicus [4]
  inhibition in vivo at 50 mg/kg: 30%
